Where two headings read alike, the source gives them in different places.
Tests used:
Assay in all cases: Cell proliferation, CTG 3D, 7 d
Format in all cases: cell-based
T24 = details: Homo sapiens, T-24; T24, HRAS (p.G12V)
Method in brief: (§1)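 Day −1, cells plated in low-attachment round-bottom wells and incubated at 37° C in 5% CO2. Day 0, compound dispensed as 9 doses at 3-fold steps with DMSO held at 0.2%. Day 7, CellTiter-Glo 3D added and shaken 30 min before luminescence reading.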

PA-1 = details: Homo sapiens; PA-1, NRAS (p.G12D)
Method in brief: as §1

SNU-387 = details: Homo sapiens
Method in brief: as §1

SW 837 = details: Homo sapiens, SW837; SW 837, KRAS (G12C)
Method in brief: as §1

HuT 78 = details: Homo sapiens, HuT78
Method in brief: as §1

MM.1S = details: Homo sapiens, MM1.S
Method in brief: as §1

NCI-H1355 = details: Homo sapiens
Method in brief: as §1

NCI-H1876 = details: Homo sapiens
Method in brief: as §1

NCI-H1299 = details: Homo sapiens
Method in brief: as §1

OCI-Ly19 = details: Homo sapiens
Method in brief: as §1

NCI-H1944 = details: Homo sapiens
Method in brief: as §1

RPMI8226 = details: Homo sapiens, RPMI-8226
Method in brief: as §1

KYSE-30 = details: Homo sapiens
Method in brief: as §1

Mia-pa-ca-2 = details: Homo sapiens, MIA PaCa-2; Mia-pa-ca-2, KRAS (G12C)
Method in brief: as §1

HCC-15 = details: Homo sapiens, HCC15
Method in brief: as §1

KMS26 = details: Homo sapiens, KMS-26; KMS26, KRAS (WT ampl)
Method in brief: as §1

NOMO-1 = details: Homo sapiens
Method in brief: as §1

HAL-01 = details: Homo sapiens
Method in brief: as §1

CAL-62 = details: Homo sapiens
Method in brief: as §1

SK-LU-1 = details: Homo sapiens; SK-LU-1, KRAS (G12D)
Method in brief: as §1

AML-193 = details: Homo sapiens
Method in brief: as §1

LS1034 = details: Homo sapiens, LS-1034
Method in brief: as §1

NCI-H747 = details: Homo sapiens
Method in brief: as §1

NCI-H2347 = details: Homo sapiens
Method in brief: as §1

GP5d = details: Homo sapiens, KRAS (G12D)
Method in brief: as §1

LU99 = details: Homo sapiens, Lu-99; LU99, KRAS (G12C)
Method in brief: as §1

`CCn1c(-c2cc(N3CCN(C)CC3)cnc2[C@H](C)OC)c2c3cc(ccc31)-c1csc(n1)C[C@H](NC(=O)[C@H]1C[C@@H]1C)C(=O)N1CCC[C@H](N1)C(=O)OCC(C)(C)O2` [Example A122, reference compound] gave an IC50 (T24) of 570 pM, an IC50 (PA-1) of 420 pM and an IC50 (SNU-387; SNU-387) of 1100 pM. The IC50 (SW 837) was 670 pM, the IC50 (HuT 78) was 550 pM and the IC50 (MM.1S) was 550 pM. For the same molecule, the IC50 (NCI-H1355; NCI-H1355) was 33000 pM, the IC50 (NCI-H1876) was 3600 pM and the IC50 (NCI-H1299; NCI-H1299) was 1500 pM. It also gave an IC50 (OCI-Ly19; OCI-LY19) of 2400 pM, an IC50 (NCI-H1944; NCI-H1944) of 1700 pM and an IC50 (RPMI8226) of 520 pM. For the same molecule, the IC50 (KYSE-30; KYSE-30) was 1000 pM, the IC50 (Mia-pa-ca-2) was 82 pM and the IC50 (HCC-15) was 1700 pM. For the same molecule, the IC50 (KMS26) was 48000 pM, the IC50 (NOMO-1; NOMO-1) was 860 pM and the IC50 (HAL-01; HAL-01) was 14000 pM. It also gave an IC50 (CAL-62; CAL-62) of 8800 pM, an IC50 (SK-LU-1) of 560 pM and an IC50 (AML-193) of 2100 pM. For the same molecule, the IC50 (LS1034) was 7300 pM, the IC50 (NCI-H747; NCI-H747) was 910 pM and the IC50 (NCI-H2347; NCI-H2347) was 4200 pM. It also gave an IC50 (GP5d) of 410 pM and an IC50 (LU99) of 910 pM.

`CO[C@@H](C)c1ncc(N2CCN(C)CC2)cc1-c1c2c3cc(cc4c3n1CCC4)-c1csc(n1)C[C@H](NC(=O)[C@H]1[C@H](C)[C@@H]1C)C(=O)N1CCC[C@H](N1)C(=O)OCC(C)(C)C2` (atropisomer, axis not shown; (M)) [Example 24, (1r,2R,3S)-N-[(7S,13S)-(20M)-20-[2-[(1S)-1-methoxyethyl]-5-(4-methylpiperazin-1-yl)-3-pyridyl]-17,17-dimethyl-8,14-dioxo-15-oxa-4-thia-9,21,30,31-tetrazahexacyclo[23.3.1.1^2,5.1^9,13.0^19,27.0^21,26]hentriaconta-1 (28),2,5 (31), 19,25 (29),26-hexaen-7-yl]-2,3-dimethyl-cyclopropanecarboxamide] showed an IC50 (T24) of 300 pM, an IC50 (PA-1) of 460 pM and an IC50 (SNU-387; SNU-387, NRAS (p.Q61K), read-out: IC50) of 430 pM. The IC50 (SW 837) was 220 pM, the IC50 (HuT 78; HuT 78, NRAS (p.Q61K), read-out: IC50) was 300 pM and the IC50 (MM.1S; MM.1S, KRAS (G12A), read-out: IC50) was 300 pM. The IC50 (NCI-H1355; NCI-H1355, KRAS (G13C), read-out: IC50) was 22000 pM, the IC50 (NCI-H1876; NCI-H1876, NRAS (p.Q61K), read-out: IC50) was 3100 pM and the IC50 (NCI-H1299; NCI-H1299, NRAS (p.Q61K), read-out: IC50) was 930 pM. The IC50 (OCI-Ly19; OCI-Ly19, NRAS (p.Q61K), read-out: IC50) was 1900 pM, the IC50 (NCI-H1944; NCI-H1944, KRAS (G13D), read-out: IC50) was 1600 pM and the IC50 (RPMI8226; RPMI8226, KRAS (G12A), read-out: IC50) was 380 pM. For the same molecule, the IC50 (KYSE-30; KYSE-30, HRAS (p.Q61L), read-out: IC50) was 460 pM, the IC50 (Mia-pa-ca-2) was 64 pM and the IC50 (HCC-15; HCC-15, NRAS (p.Q61K), read-out: IC50) was 680 pM. It also gave an IC50 (KMS26) of 50000 pM, an IC50 (NOMO-1; NOMO-1, KRAS (G13D), read-out: IC50) of 470 pM and an IC50 (HAL-01; HAL-01, NRAS (p.G12S), read-out: IC50) of 13000 pM. It also gave an IC50 (CAL-62; CAL-62, KRAS (G12R), read-out: IC50) of 1100 pM, an IC50 (SK-LU-1) of 500 pM and an IC50 (AML-193; AML-193, NRAS (p.G13V), read-out: IC50) of 1100 pM. For the same molecule, the IC50 (LS1034; LS1034, KRAS (A146T), read-out: IC50) was 12000 pM, the IC50 (NCI-H747; NCI-H747, KRAS (G13D), read-out: IC50) was 720 pM and the IC50 (NCI-H2347; NCI-H2347, KRAS (L19F), read-out: IC50) was 2000 pM. For the same molecule, the IC50 (GP5d) was 480 pM and the IC50 (LU99) was 590 pM.
